Laboratory results published in ChEMBL document CHEMBL4665750, “Structure-Activity Relationship Study of Majusculamides A and B and Their Analogues on Osteogenic Activity” (J Nat Prod, 2020).
The source made the active and inactive calls. The calls are words filed in the database; no cut-off is given here.

Legend:
MC3T3-E1 [1] = assay: Activation of alkaline phosphatase secretion in mouse MC3T3-E1 cells at >= 30 uM using 4-nitrophenyl phosphate as substrate after 6 days; format: cell-based; settings: dose microM >=30, time 6.0 day
MC3T3-E1 [2] = assay: Osteogenic activity in mouse MC3T3-E1 cells assessed as mineralization at >= 30 uM after 6 days by Alizarin Red S staining-based method; format: functional, cell-based; settings: dose microM >=30, time 6.0 day
MC3T3-E1 [3] = assay: Osteogenic activity in mouse MC3T3-E1 cells assessed as mineralization at 30 uM after 6 days by Alizarin Red S staining-based method; format: functional, cell-based; settings: time 6.0 day
MC3T3-E1 [4] = assay: Activation of alkaline phosphatase secretion in mouse MC3T3-E1 cells at 30 uM using 4-nitrophenyl phosphate as substrate after 6 days; format: cell-based; settings: time 6.0 day
MC3T3-E1 [5] = assay: Osteogenic activity in mouse MC3T3-E1 cells assessed as mineralization at 15 uM after 6 days by Alizarin Red S staining-based method; format: functional, cell-based; settings: time 6.0 day
MC3T3-E1 [6] = assay: Activation of alkaline phosphatase secretion in mouse MC3T3-E1 cells at 15 uM using 4-nitrophenyl phosphate as substrate after 6 days; format: cell-based; settings: filed as activator, time 6.0 day
MC3T3-E1 [7] = assay: Cytotoxicity against mouse MC3T3-E1 cells assessed as reduction in cell viability at 30 uM after 6 days by MTT assay; format: cell-based; settings: mc3t3-e1, 144 h, time 6 day
MC3T3-E1 [8] = assay: Cytotoxicity against mouse MC3T3-E1 cells assessed as reduction in cell viability at >= 30 uM after 6 days by MTT assay; format: cell-based; settings: mc3t3-e1, 144 h, time 6 day
MC3T3-E1 [9] = assay: Osteogenic activity in mouse MC3T3-E1 cells assessed as mineralization at 7.5 uM after 6 days by Alizarin Red S staining-based method; format: functional, cell-based; settings: time 6.0 day

Row | SMILES | Activity (MC3T3-E1 [1]; filed as activator) | Activity (MC3T3-E1 [2]) | Activity (MC3T3-E1 [3]) | further results
1 | CCCCCCCC(=O)CC(=O)N(C)[C@H](Cc1ccc(OC)cc1)C(=O)N(C)[C@H](C(N)=O)C(C)C | Active | inactive |  | 
2 | CCCCCCC[C@@H](O)[C@H](C)C(=O)N(C)[C@H](Cc1ccc(OC)cc1)C(=O)N(C)[C@H](C(N)=O)C(C)C |  |  | Active | Activity (MC3T3-E1 [4]; filed as activator): Active
3 | CCCCCCCCCC(=O)[C@@H](C)C(=O)N(C)[C@H](Cc1ccc(OC)cc1)C(=O)N(C)[C@H](C(N)=O)C(C)C |  |  |  | Activity (MC3T3-E1 [5]): inactive; Activity (MC3T3-E1 [6]): Active; Activity (MC3T3-E1 [7]): Toxic
4 | CCCC(=O)[C@@H](C)C(=O)N(C)[C@H](Cc1ccc(OC)cc1)C(=O)N(C)[C@H](C(N)=O)C(C)C |  |  | inactive | Activity (MC3T3-E1 [4]; filed as activator): Active
5 | CCCCCCCC(=O)C(C)(C)C(=O)N(C)[C@H](Cc1ccc(OC)cc1)C(=O)N(C)[C@H](C(N)=O)C(C)C | Active | inactive |  | 
6 | CCCCCCCC(=O)[C@H](C)C(=O)N(C)[C@H](Cc1ccc(OC)cc1)C(=O)N(C)[C@H](C(N)=O)C(C)C | Active | Active |  | Activity (MC3T3-E1 [8]): Non-Toxic
7 | CCCCCCCC(=O)[C@@H](C)C(=O)N(C)[C@H](Cc1ccccc1)C(=O)N(C)[C@H](C(N)=O)C(C)C | Active | inactive |  | 
8 | CCCCCCCC[C@H](C)C(=O)N(C)[C@H](Cc1ccc(OC)cc1)C(=O)N(C)[C@H](C(N)=O)C(C)C |  | inactive | Active | Activity (MC3T3-E1 [1]): inactive
9 | CCCCCCCCCC(=O)N(C)[C@H](Cc1ccc(OC)cc1)C(=O)N(C)[C@H](C(N)=O)C(C)C | Active | Active |  | Activity (MC3T3-E1 [7]): Toxic
10 | CCCCCCC[C@H](O)[C@@H](C)C(=O)N(C)[C@H](Cc1ccc(OC)cc1)C(=O)N(C)[C@H](C(N)=O)C(C)C |  |  | inactive | Activity (MC3T3-E1 [4]; filed as activator): Active
11 | CCCCCC(=O)[C@@H](C)C(=O)N(C)[C@H](Cc1ccc(OC)cc1)C(=O)N(C)[C@H](C(N)=O)C(C)C |  |  | inactive | Activity (MC3T3-E1 [4]; filed as activator): Active
12 | CCCCCCCC[C@@H](C)C(=O)N(C)[C@H](Cc1ccc(OC)cc1)C(=O)N(C)[C@H](C(N)=O)C(C)C |  | inactive | Active | Activity (MC3T3-E1 [1]): inactive
13 | CCCCCCCC(=O)[C@@H](C)C(=O)N(C)[C@H](Cc1cc(Cl)c(OC)c(Cl)c1)C(=O)N(C)[C@H](C(N)=O)C(C)C |  |  | inactive | Activity (MC3T3-E1 [4]): inactive; Activity (MC3T3-E1 [7]): Toxic
14 | CCCCCCCC(=O)[C@@H](C)C(=O)N(C)[C@H](Cc1ccc(OC)cc1)C(=O)N(C)[C@@H](C)C(N)=O | Active |  | inactive | Activity (MC3T3-E1 [5]): Active; Activity (MC3T3-E1 [9]): Active
15 | CCCCCCCC(=O)[C@@H](C)C(=O)N(C)[C@H](Cc1ccc(OC)cc1)C(=O)N(C)[C@H](C(N)=O)C(C)C | Active | Active |  | Activity (MC3T3-E1 [8]): Non-Toxic
